Measurements from patent US20060148059A1, “Salt tolerant l-myo-inositol 1-phosphate synthase and the process of obtaining the same” (priority 2002, published 2006).
Where two headings read alike, the source gives them in different places.

Experiments:
[1] = test system: Oryza sativa L-myo-inositol 1-phosphate synthase (RINO), native; settings: data from RayChaudhury et al. (1997); cited from earlier work
[2] = pH and temperature optimum of enzyme activity; assay type: biochemical
Description: The purified bacterially expressed RINO1 and PINO1 proteins were characterized for their biochemical properties (Table-1). […] For both the cases optimum enzyme activity was at 37° C. whereas optimum pH for Porteresia recombinant synthase (PINO1) was 8.0 and the same for Oryza recombinant synthase (RINO1) was 7.5.

[3] = Inositol synthase activity in presence of increasing NaCl concentration; assay type: biochemical; settings: NaCl in vitro
From the text: With respect to salt-sensitivity, RINO1 and PINO1 proteins differ a great deal.
FIG. 3: Inositol synthase activity in presence of increasing NaCl concentration for purified native (A) and recombinant (B) enzymes.

[4] = Tryptophan fluorescence in increasing NaCl concentrations; assay type: physicochemical; settings: recombinant preparations
Description: FIG. 4: Tryptophan fluorescence of purified RINO1 (A) and PINO1 (B) proteins in increasing NaCl concentrations; tracing 1,2,3 & 4 correspond to 0, 100 mM, […] and 400 mM NaCl in the system.
Tryptophan Fluorescence spectra of the recombinant preparations of the inositol synthase(s) from Oryza sativa (RINO1) and Porteresia coarctata (PINO1) are shown in Panel A and B respectively in FIG. 4. […] The emission maxima in both the cases remain close to 336 nm.

[5] = not told
Description: FIG. 5: Gel filtration pattern on Superose-12 of RINO1 and PINO1 proteins in absence and presence of 400 mM NaCl. (A) RINO1 without NaCl; (B) RINO1 with NaCl; (C) PINO1 without NaCl; (D) PINO1 with NaCl. Insets depict SDS-PAGE and immuno dot blots of indicated fractions.

[6] = enzyme activity; data from RayChaudhury et al. (1997); cited from earlier work

**Q.** With `NC(=O)c1ccc[n+]([C@@H]2O[C@H](COP(=O)([O-])OP(=O)(O)OC[C@H]3O[C@@H](n4cnc5c(N)ncnc54)[C@H](O)[C@@H]3O)[C@@H](O)[C@H]2O)c1` [NAD] as the molecule, how does the Km [1] read?
**A.** 140 µM

**Q.** What about the Vmax [1] of the same molecule?
**A.** 0.09 μmol^−m

**Q.** Which “Temperature Optimum” value [2] does the source give for “L-myo-inositol 1-phosphate synthase [PINO Native]” here?
**A.** 35 °C

**Q.** What about the pH optimum [2] of the same molecule?
**A.** 7.5

**Q.** With `O=P(O)(O)OC[C@H]1OC(O)[C@H](O)[C@@H](O)[C@@H]1O` (stereo partly shown) [G6P, Glucose 6 phosphate] as the molecule, how does the Km [1] read?
**A.** 1970 µM

**Q.** What about the Vmax [1] of the same molecule?
**A.** 0.07 μmol^−m

**Q.** For “L-myo-inositol 1-phosphate synthase [RINO Recombinant]”, which “salt-sensitivity of inositol synthase activity” value [3] is on record?
**A.** sensitive to NaCl

**Q.** What about the “Tryptophan fluorescence intensity in presence of added salt” value ([4]; listed as RINO1) of the same molecule?
**A.** quenched significantly

**Q.** And the “Temperature Optimum” value [2]?
**A.** 37 °C

**Q.** What about the pH optimum [2] of the same molecule?
**A.** 7.5

**Q.** What about the “Temperature Optimum” value ([2]; listed as RINO1) of the same molecule?
**A.** 37 °C

**Q.** And the pH optimum ([2]; listed as RINO1)?
**A.** 7.5

**Q.** What about the “Gel-permeation elution pattern on addition of salt” value [5] of the same molecule?
**A.** substantial reduction in the original peak and concurrent appearance of a high molecular weight fraction

**Q.** Which “Temperature Optimum” value [6] does the source give for “L-myo-inositol 1-phosphate synthase [RINO Native]” here?
**A.** 35 °C

**Q.** And the pH optimum [6]?
**A.** 8.2

**Q.** What about the “salt-sensitivity of inositol synthase activity” value [3] of the same molecule?
**A.** sensitive to NaCl

**Q.** What does the source list for “L-myo-inositol 1-phosphate synthase [PINO Recombinant]”?
**A.** Tryptophan fluorescence intensity in presence of added salt ([4]; listed as PINO1): rather insensitive; Temperature Optimum [2]: 37 °C; pH optimum [2]: 8.0; Temperature Optimum ([2]; listed as PINO1): 37 °C; pH optimum ([2]; listed as PINO1): 8.0; Gel-permeation elution pattern on addition of salt [5]: elutes at the same place
